Source: PubChem BioAssay AID435023 (Broad Institute, 2010)
Active and inactive are the calls of the source. How the calls were made is not given here.

Target: Protein LANA1 (Human herpesvirus 8 type P (isolate GK18)) (UniProt Q9QR71)
Test: LANA–H2A/H2B histone binding inhibitors, dose response, biochemical, fluorescence polarization, cell-free, retest (AID 435023)
Conditions: LANA peptide-nucleosome binding

Protein LANA1 (Human herpesvirus 8 type P (isolate GK18)), sequence (Q9QR71 whole entry, looked up): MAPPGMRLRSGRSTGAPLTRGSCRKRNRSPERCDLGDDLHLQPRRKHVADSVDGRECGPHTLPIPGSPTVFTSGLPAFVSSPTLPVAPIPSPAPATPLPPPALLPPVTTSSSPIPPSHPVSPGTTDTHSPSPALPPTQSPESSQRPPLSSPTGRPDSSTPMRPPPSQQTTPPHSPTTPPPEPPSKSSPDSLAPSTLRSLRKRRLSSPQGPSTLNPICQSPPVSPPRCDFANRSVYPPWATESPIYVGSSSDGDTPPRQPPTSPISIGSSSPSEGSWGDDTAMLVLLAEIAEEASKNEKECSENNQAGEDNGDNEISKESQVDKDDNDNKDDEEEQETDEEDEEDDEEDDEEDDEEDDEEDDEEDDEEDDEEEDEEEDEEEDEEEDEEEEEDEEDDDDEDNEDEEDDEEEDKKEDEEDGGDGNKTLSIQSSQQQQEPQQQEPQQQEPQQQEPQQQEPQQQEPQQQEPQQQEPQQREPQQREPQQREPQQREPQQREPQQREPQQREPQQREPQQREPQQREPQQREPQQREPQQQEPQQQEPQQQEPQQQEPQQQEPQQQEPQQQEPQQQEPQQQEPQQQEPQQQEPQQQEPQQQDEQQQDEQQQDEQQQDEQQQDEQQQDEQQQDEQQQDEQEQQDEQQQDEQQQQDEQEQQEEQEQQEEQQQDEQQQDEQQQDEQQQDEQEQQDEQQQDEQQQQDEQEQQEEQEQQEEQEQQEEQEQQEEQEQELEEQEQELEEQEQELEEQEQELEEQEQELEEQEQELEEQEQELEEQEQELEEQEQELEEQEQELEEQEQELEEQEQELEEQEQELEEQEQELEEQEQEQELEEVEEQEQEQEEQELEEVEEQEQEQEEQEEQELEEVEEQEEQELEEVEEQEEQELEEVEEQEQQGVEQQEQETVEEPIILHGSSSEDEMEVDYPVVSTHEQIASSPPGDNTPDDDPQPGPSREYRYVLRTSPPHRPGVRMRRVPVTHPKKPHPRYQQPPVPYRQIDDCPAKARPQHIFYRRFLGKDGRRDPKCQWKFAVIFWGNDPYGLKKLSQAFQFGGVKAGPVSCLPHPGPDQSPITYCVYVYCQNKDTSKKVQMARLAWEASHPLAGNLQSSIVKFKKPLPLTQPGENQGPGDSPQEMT

With CC1Cc2cc(/C(O)=C3\C(=O)C(=O)N(Cc4cccnc4)C3c3ccccc3F)ccc2O1 (configuration not stated) the EC50 was > 7.5 µM (inactive).
COc1ccccc1C1C(C(=O)c2sc(C)nc2C)=C(O)C(=O)N1CCN1CCOCC1 (configuration not stated) was tested, and the EC50 was > 7.5 µM (inactive).
With Oc1c(N=NC(=S)Nc2ccccc2F)c2ccccc2n1Cc1ccc(Cl)cc1 the EC50 was > 7.5 µM (inactive).
For Cc1ccc2oc(=O)c(/C=C(\O)c3ccco3)nc2c1, the EC50 was > 7.5 µM (inactive).
With C/C(=N\Nc1ccc(Cl)c(C(=O)O)c1)c1ccc(N2CCOCC2)cc1 the EC50 was > 7.5 µM (inactive).
For C=CCOc1ccc(/C(O)=C2/C(=O)C(=O)N(CCCN3CCOCC3)C2c2ccc(OC)cc2)cc1 (configuration not stated), the EC50 was > 7.5 µM (inactive).
With COc1ccc(N/C=C/C(=O)c2ccc(Cl)cc2)cc1 the EC50 was > 7.5 µM (inactive).
For CCn1c(O)c(/C=C2\C=NN=C2c2ccccc2)sc1=S, the EC50 was > 7.5 µM (inactive).
In the case of O=c1c(/C=C(\O)c2ccc(F)cc2)nc2ccccc2n1-c1ccccc1, the EC50 is reported as > 7.5 µM (inactive).
With O=C(C1=C(O)C(=O)N(Cc2ccccc2)C1c1cccnc1)c1ccco1 (configuration not stated) the EC50 was > 7.5 µM (inactive).
With CCN(CC)CCN1C(=O)C(O)=C(C(=O)c2ccc(C)o2)C1c1ccccn1 (configuration not stated) the EC50 was > 7.5 µM (inactive).
In the case of COc1ccc(N/C=C/C(=O)c2cc(OC)c(OC)c(OC)c2)cc1, the EC50 is reported as > 7.5 µM (inactive).
With CCOc1cc(C2C3=C(CCCC3=O)Nc3nc(C(=O)OC)nn32)ccc1OC (configuration not stated) the EC50 was > 7.5 µM (inactive).
For COc1ccc(NC2=C(Cl)C(=O)N(c3ccccc3)C2=O)c(OC)c1, the EC50 was > 7.5 µM (inactive).
In the case of O=C(C1=C(O)C(=O)N(CCCN2CCOCC2)C1c1ccccn1)c1cc2ccccc2o1 (configuration not stated), the EC50 is reported as > 7.5 µM (inactive).
COc1ccccc1N1CCN(C2CC(=O)N(c3cccc(Cl)c3)C2=O)CC1 (configuration not stated) was tested, and the EC50 was > 7.5 µM (inactive).
In the case of C/C(=N\N=C1/NC(=O)C(C)S1)c1ccc([N+](=O)[O-])cc1 (configuration not stated), the EC50 is reported as > 7.5 µM (inactive).
In the case of O=C(O)C(C/C(=N/O)c1ccc(Br)cc1)P(=O)(c1ccccc1)c1ccccc1 (configuration not stated), the EC50 is reported as > 7.5 µM (inactive).
In the case of COc1ccc(C2C(C(=O)c3ccco3)=C(O)C(=O)N2CC2CCCO2)cc1OC (configuration not stated), the EC50 is reported as > 7.5 µM (inactive).
CC1=NCCc2c1[nH]c1cc(O)ccc21 gave an EC50 of 2.37 µM.
CN(CCOc1ccc(CC2SC(=O)NC2=O)cc1)c1ccccn1 (configuration not stated) was tested, and the EC50 was > 7.5 µM (inactive).
For O=C(CC1SC(N2CCCCC2)=NC1=O)Nc1cccc(C(=O)O)c1 (configuration not stated), the EC50 was > 7.5 µM (inactive).
In the case of CC1(C)CC(=O)C(C(C#Cc2ccccc2)C2=C(O)CC(C)(C)CC2=O)=C(O)C1, the EC50 is reported as > 7.5 µM (inactive).
In the case of CC1(C)C(C#N)=C(N)OC2=C1C(=O)CCC2, the EC50 is reported as > 7.5 µM (inactive).
CC[C@H]1c2[nH]c3ccccc3c2C[C@H]2C(=O)N(c3ccc(F)cc3)C(=O)N21 was tested, and the EC50 was > 7.5 µM (inactive).
CCN(CC)CCCN1C(=O)C(=O)/C(=C(/O)c2ccccc2)C1c1cc(OC)ccc1OC (configuration not stated) was tested, and the EC50 was > 7.5 µM (inactive).
Cc1ccc(NC2=C([N+](=O)[O-])CS(=O)(=O)C2)cc1 was tested, and the EC50 was > 7.5 µM (inactive).
In the case of COC(=O)CC1=C(C(=O)OC)C(c2cc(OC)c(OC)cc2OC)C(C#N)=C(N)O1 (configuration not stated), the EC50 is reported as > 7.5 µM (inactive).
With COc1ccc(C2=CC(c3cc(OC)c(OC)c(OC)c3)NC(=S)N2)cc1 (configuration not stated) the EC50 was > 7.5 µM (inactive).
For CC1(C)C(c2cccs2)=[N+]([O-])C2(CCCCC/C2=N\O)N1O (configuration not stated), the EC50 was > 7.5 µM (inactive).
COc1ccc(C(=O)/C=C/Nc2ccc(S(=O)(=O)Nc3cc(OC)nc(OC)n3)cc2)c(OC)c1 was tested, and the EC50 was > 7.5 µM (inactive).
In the case of CC1C2CC(C(CN(C)C)/C2=N/O)C1(C)C (configuration not stated), the EC50 is reported as > 7.5 µM (inactive).
With O=[N+]([O-])c1cccc(/C=N/Nc2nccnc2Cl)c1 the EC50 was > 7.5 µM (inactive).
For O=C1CC(c2ccc(F)cc2)CC(O)=C1C=NCCN1CCNCC1 (configuration not stated), the EC50 was > 7.5 µM (inactive).
In the case of COc1ccccc1N1C(=O)[C@@H]2C(C(=O)CN3C(=O)c4ccccc4C3=O)=NN[C@@H]2C1=O, the EC50 is reported as > 7.5 µM (inactive).
Cc1ccc(N2C(=O)[C@@H]3C(C(=O)CN4C(=O)c5ccccc5C4=O)=NN[C@@H]3C2=O)c(C)c1 was tested, and the EC50 was > 7.5 µM (inactive).
In the case of CC(=O)c1cccc(OC(=O)C2=CC=CN3CCS(=O)(=O)N=C23)c1, the EC50 is reported as > 7.5 µM (inactive).
With COC(=O)c1ccccc1NC1CC(=O)N(c2c(C)cccc2C)C1=O (configuration not stated) the EC50 was > 7.5 µM (inactive).
With COc1ccc(CC2C(=O)N(c3ccccc3)C(=O)N(c3ccccc3)C2=O)c(OC)c1 the EC50 was > 7.5 µM (inactive).
CCNc1nc(NCC)nc(N/N=C/c2ccc(N(C)C)cc2)n1 was tested, and the EC50 was > 7.5 µM (inactive).
In the case of O=C(O)CC1S/C(=N/N=C/c2ccccn2)NC1=O (configuration not stated), the EC50 is reported as > 7.5 µM (inactive).
With CC1OC(OCC2OC(Oc3c(-c4ccc(O)cc4)oc4cc(O)cc(O)c4c3=O)C(O)C(O)C2O)C(O)C(O)C1O (configuration not stated) the EC50 was > 7.5 µM (inactive).
For CCOc1cccc(C2C(C(=O)c3ccc(C)o3)=C(O)C(=O)N2c2nccs2)c1 (configuration not stated), the EC50 was > 7.5 µM (inactive).
With Cc1cc(C)nc(SC2CC(=O)N(c3ccc(C)c(C)c3)C2=O)n1 (configuration not stated) the EC50 was > 7.5 µM (inactive).
With C/C(=N/NC(=O)c1ccncc1)c1cc2ccc(O)cc2oc1=O the EC50 was > 7.5 µM (inactive).
With CCOC(=O)C1=C(CSc2nc(-c3ccccc3)ccc2C#N)OC(N)=C(C#N)C1c1ccccc1 (configuration not stated) the EC50 was > 7.5 µM (inactive).
For COc1cc([N+](=O)[O-])ccc1N1C(=O)CC(Sc2nccc(C)n2)C1=O (configuration not stated), the EC50 was > 7.5 µM (inactive).
With C/C(=N\Nc1nncc2ccccc12)c1ccc(O)cc1 the EC50 was > 7.5 µM (inactive).
With CN1CC=C2C(C#N)=C(N)C(C#N)(C#N)[C@H](c3ccoc3)[C@H]2C1 the EC50 was > 7.5 µM (inactive).
With Brc1ccc(C2=CC(c3ccco3)n3ncnc3N2)cc1 (configuration not stated) the EC50 was > 7.5 µM (inactive).
For O=C1CCCC(O)=C1C=Nc1ccc(O)cc1, the EC50 was > 7.5 µM (inactive).
For COc1ccc(C2C(C(=O)c3cccs3)=C(O)C(=O)N2c2nncs2)cc1 (configuration not stated), the EC50 was > 7.5 µM (inactive).
COc1cc(/C=N/O)c(Br)cc1OCC(=O)Nc1ccccc1C was tested, and the EC50 was > 7.5 µM (inactive).
CCOc1ccc(N2C(=O)C3ON(c4ccccc4)C(c4ccco4)C3C2=O)cc1 (configuration not stated) was tested, and the EC50 was > 7.5 µM (inactive).
CCC/C=N/O was tested, and the EC50 was > 7.5 µM (inactive).
NC(=O)Cn1c(O)c(N=NC(=O)CNC(=O)/C=C/c2ccccc2)c2ccccc21 was tested, and the EC50 was > 7.5 µM (inactive).
For Cn1[nH]c(-c2ccccc2)c(/C=N/O)c1=O, the EC50 was > 7.5 µM (inactive).
With Oc1ccc2nnc3c(Br)cnn3c2c1 the EC50 was > 7.5 µM (inactive).
O=C(CC1SC(N2CCOCC2)=NC1=O)Nc1ccc(Cl)c(C(F)(F)F)c1 (configuration not stated) was tested, and the EC50 was > 7.5 µM (inactive).
For N#CC(C#N)=C/C(C#N)=C(/N)N1CCN(c2ccc(Cl)cc2)CC1, the EC50 was > 7.5 µM (inactive).
With COc1ccc(CCn2c(O)c(C=Nc3ccc(F)cc3)c(=O)[nH]c2=O)cc1OC the EC50 was > 7.5 µM (inactive).
With CC(C)n1c(O)c(/C=C2\C=NN=C2c2ccccc2)sc1=S the EC50 was > 7.5 µM (inactive).
For CCCCc1ccc(N=N/C(C(=O)Nc2ccc(NC(C)=O)cc2OC)=C(/C)O)cc1, the EC50 was > 7.5 µM (inactive).
For CCc1nnc(NS(=O)(=O)c2ccc(N=CC3=C(O)CC(C)(C)CC3=O)cc2)s1, the EC50 was > 7.5 µM (inactive).
Work on Cc1ccc(/C(O)=C/c2nc3cc(C)ccc3oc2=O)cc1 yielded an EC50 of 5.84 µM.
Cc1cccc(CC2CC(=O)N(c3ccc(C)cc3Br)C2=O)c1 (configuration not stated) was tested, and the EC50 was > 7.5 µM (inactive).
CC(=O)C1=C(O)C(=O)N(c2ccc(C(=O)O)cc2)C1c1ccc([N+](=O)[O-])cc1 (configuration not stated) was tested, and the EC50 was > 7.5 µM (inactive).
COc1cccc(CNC(=O)c2ccc(NC(=O)CC3SC(N4CCCC4)=NC3=O)cc2)c1 (configuration not stated) was tested, and the EC50 was > 7.5 µM (inactive).
CNC(=O)c1ccc(NC(=O)CC2SC(N3CCCC3)=NC2=O)cc1 (configuration not stated) was tested, and the EC50 was > 7.5 µM (inactive).
With N#Cc1ccccc1/C=N/Nc1nc(-c2ccccc2)c2cc(Cl)ccc2n1 the EC50 was > 7.5 µM (inactive).
For Cc1nc2c(C)cccn2c1/C(O)=C1\C(=O)C(=O)N(CCN(C)C)C1c1ccccc1 (configuration not stated), the EC50 was > 7.5 µM (inactive).
For O=C(/C=C/Nc1ccccc1)c1ccc(Cl)cc1Cl, the EC50 was > 7.5 µM (inactive).
